Measured values taken from ChEMBL document CHEMBL1201862, “PubChem BioAssay data set” (2004).
“And” between values parts separate entries of the source, which are not always exact repeats. Equal values may be shown once. The source made the active and inactive calls.

What was measured:
[1] = biological target: T1, Cytochrome P450 1A2 (Homo sapiens, UniProt P05177);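 also: PubChem cytochrome P450 panel assay, CYP1A2 panel member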
T1 sequence (P05177 whole entry): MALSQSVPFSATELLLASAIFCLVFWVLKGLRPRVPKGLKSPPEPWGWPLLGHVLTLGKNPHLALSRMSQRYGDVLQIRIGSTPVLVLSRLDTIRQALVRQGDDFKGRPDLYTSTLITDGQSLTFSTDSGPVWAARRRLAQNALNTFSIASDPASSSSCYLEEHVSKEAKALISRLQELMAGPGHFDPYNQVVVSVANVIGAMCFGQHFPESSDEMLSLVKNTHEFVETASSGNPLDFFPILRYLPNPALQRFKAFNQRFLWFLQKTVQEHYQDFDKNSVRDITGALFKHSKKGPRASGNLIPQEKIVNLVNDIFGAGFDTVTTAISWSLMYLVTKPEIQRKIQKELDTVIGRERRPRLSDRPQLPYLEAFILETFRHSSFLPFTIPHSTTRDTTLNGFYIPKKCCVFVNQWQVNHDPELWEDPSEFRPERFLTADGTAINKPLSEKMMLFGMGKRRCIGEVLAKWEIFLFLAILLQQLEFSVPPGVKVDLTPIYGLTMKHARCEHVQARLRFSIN

[2] = biological target: Cytochrome P450 2D6 (Homo sapiens, UniProt P10635);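 also: CYP2D6 member of a cytochrome P450 panel assay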
Cytochrome P450 2D6, sequence (P10635 whole entry): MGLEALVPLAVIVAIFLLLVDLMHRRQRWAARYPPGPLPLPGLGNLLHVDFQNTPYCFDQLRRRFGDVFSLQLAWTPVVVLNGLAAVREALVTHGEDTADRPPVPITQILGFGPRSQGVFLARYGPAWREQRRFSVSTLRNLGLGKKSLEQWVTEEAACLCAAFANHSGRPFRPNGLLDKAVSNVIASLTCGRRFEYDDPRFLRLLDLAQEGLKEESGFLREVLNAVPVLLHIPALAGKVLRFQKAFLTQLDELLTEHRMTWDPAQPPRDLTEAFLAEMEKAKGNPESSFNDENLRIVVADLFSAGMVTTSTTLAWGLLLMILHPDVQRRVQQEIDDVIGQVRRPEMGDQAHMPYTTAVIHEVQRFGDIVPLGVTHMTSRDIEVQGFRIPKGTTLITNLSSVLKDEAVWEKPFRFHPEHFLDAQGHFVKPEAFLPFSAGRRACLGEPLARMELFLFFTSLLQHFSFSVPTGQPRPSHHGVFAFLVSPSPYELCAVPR

[3] = biological target: Cytochrome P450 2C9 (Homo sapiens, UniProt P11712)
Cytochrome P450 2C9, sequence (P11712 whole entry): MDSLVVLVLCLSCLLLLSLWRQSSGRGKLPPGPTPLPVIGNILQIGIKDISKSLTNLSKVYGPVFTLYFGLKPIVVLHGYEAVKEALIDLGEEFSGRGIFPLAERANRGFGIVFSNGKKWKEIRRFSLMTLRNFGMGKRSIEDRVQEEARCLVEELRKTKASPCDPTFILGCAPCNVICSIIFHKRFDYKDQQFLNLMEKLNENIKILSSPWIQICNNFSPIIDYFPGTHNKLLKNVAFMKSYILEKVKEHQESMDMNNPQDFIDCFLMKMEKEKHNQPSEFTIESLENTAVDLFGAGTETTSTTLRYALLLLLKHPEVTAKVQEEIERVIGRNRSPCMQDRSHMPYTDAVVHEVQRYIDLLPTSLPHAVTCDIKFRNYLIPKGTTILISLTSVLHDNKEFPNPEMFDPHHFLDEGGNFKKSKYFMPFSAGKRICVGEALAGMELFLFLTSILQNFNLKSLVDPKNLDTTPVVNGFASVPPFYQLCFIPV

[4] = inhibitors of intracellular T. cruzi replication, confirmation, NIH3T3 host cells, beta-gal luminescence (AID 2044); assay type: functional, cell-based;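 also: intracellular parasites grown in NIH/3T3 mouse fibroblasts as host cells; luminescent beta-galactosidase reporter signal from transgenic T. cruzi replicating inside host cells; inhibitors lower the luminescence signal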
[5] = cytotoxicity toward NIH3T3 fibroblasts, dose response, counter-screen, cell-based, ATP luminescence, mouse fibroblasts (AID 2010); assay type: functional;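 also: cells exposed to compound for about 90 hours before reading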
[6] = biological target: T2, Corticotropin-releasing factor receptor 2/Corticotropin-releasing factor-binding protein (Homo sapiens, UniProt P24387+Q13324); assay: activators of CRF receptor 2 with binding protein – uHTS hits, confirmation (AID 602473); assay type: functional; conditions: read-out: EC50_Mean
T2 sequence (Q13324 whole entry): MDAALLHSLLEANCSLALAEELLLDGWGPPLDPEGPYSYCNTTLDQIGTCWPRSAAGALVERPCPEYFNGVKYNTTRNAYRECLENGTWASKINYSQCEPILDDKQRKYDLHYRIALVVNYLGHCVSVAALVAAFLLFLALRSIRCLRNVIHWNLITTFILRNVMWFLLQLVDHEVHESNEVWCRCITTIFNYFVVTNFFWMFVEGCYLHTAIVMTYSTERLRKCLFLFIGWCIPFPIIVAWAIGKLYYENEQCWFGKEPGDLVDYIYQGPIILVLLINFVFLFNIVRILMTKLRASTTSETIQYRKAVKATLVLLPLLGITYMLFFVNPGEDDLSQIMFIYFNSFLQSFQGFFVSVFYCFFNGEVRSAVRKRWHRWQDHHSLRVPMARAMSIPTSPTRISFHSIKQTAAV
T2 sequence (P24387 whole entry): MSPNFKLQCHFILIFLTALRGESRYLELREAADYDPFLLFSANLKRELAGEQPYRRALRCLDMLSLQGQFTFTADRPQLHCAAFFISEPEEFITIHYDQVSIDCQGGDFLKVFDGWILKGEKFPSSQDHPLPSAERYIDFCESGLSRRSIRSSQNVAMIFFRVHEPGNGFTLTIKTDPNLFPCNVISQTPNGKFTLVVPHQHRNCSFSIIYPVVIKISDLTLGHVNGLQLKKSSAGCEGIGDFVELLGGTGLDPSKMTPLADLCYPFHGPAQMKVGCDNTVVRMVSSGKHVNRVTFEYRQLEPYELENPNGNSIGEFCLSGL

[7] = HEp-2 cell cytotoxicity, dose response, cytotoxicity control for RSV inhibitor project, HTS (AID 2410); assay type: functional; conditions: human respiratory syncytial virus

SMILES: N#Cc1cccc(NC(=O)N2CCCC3(CCN(C(=O)c4cccc(F)c4)CC3)C2)c1
- AC50 [1]: 12.6 µM (inconclusive)
- AC50 [2]: 39.8 µM (inconclusive)
- AC50 [3]: 31.6 µM (inconclusive)

SMILES: CCN(CC)CCNC(=O)c1ccc(Cl)c(S(=O)(=O)Nc2ccccc2OC)c1
- AC50 [3]: 12.6 µM (inconclusive)

SMILES: CC(C)OC(=O)c1cc2c(ccn2C)n1CC(=O)N1CCC(Cc2ccccc2)CC1
- AC50 [1]: 25.1 µM (inconclusive)
- AC50 [2]: 20 µM (inconclusive)

SMILES: CCCNC(=O)OC[C@@H]1O[C@H](CCO/N=C(\C)CCN2CCCCc3nc(C)c(C)cc32)C=C[C@@H]1Oc1ccc(OC)cc1
- AC50 [2]: 2.51 µM (inconclusive)
- AC50 [3]: 3.98 µM (inconclusive)

SMILES: CCOC(=O)C(C)Sc1nnc(CNC(=O)c2ccc(OC)cc2)n1C1CCCCC1 (stereo not given)
- AC50 [3]: 15.8 µM (inconclusive)

SMILES: O=C(C[N+]1(c2ccccc2)CCOCC1)c1ccccc1
- AC50 [3]: 6.31 µM (inconclusive)

SMILES: COc1cccc(-c2cncnc2NCc2cccs2)c1
- AC50 [2]: 20 µM (inconclusive)

SMILES: OCCC1CN(Cc2ccc3nonc3c2)CCN1Cc1ccsc1 (stereo not given)
- EC50 [4]: 0.452 µM (active)
- EC50 [5]: > 60 µM (not active)

SMILES: Clc1ccc2[nH]cc(-c3nnnn3-c3ccc4ccccc4c3)c2c1
- EC50 [4]: 1.97 µM (active)
- EC50 [5]: > 60 µM (not active)

SMILES: O=C(Nc1ccccc1C(=O)O)c1cc(S(=O)(=O)N2CCCCC2)c(Cl)cc1Cl
- EC50 [4]: 3.6 µM (active)
- EC50 [5]: 14 µM (active)

SMILES: COc1cc(O)oc1/C=N/c1ccc(C(F)(F)F)cc1
- AC50 [2]: 15.8 µM (inconclusive)
- AC50 [3]: 17.8 µM (inconclusive)

SMILES: CCOc1cc(C)c(C(C)C)cc1S(=O)(=O)n1cnc(C)c1
- EC50 [6]: > 53 µM (inactive)
- EC50 [4]: 1.53 µM (active)
- EC50 [5]: 8.49 µM (active)

SMILES: Cc1cc(C)n(-c2ccc3nnc(C)n3n2)n1
- CC50 [7]: 22 µM (active)

SMILES: Cc1ccc(OCCOCCn2cnc3ccccc3c2=O)cc1C
- CC50 [7]: 23.3 µM (active)

SMILES: COc1ccc(C2SCC(=O)N2CC23CC4CC(CC(C4)C2)C3)cc1 (stereo not given)
- EC50 [4]: 2.87 µM (active)
- EC50 [5]: > 60 µM (not active)

SMILES: CCOC(=O)NC(=O)CSc1nc2cc(OCC)ccc2[nH]1
- AC50 [2]: 0.562 µM (inconclusive)

SMILES: COCCn1c(=O)c(-c2cccc(C#N)c2)nc2cnc(N3CCOCC3)nc21
- AC50 [1]: 10 µM (inconclusive)
- AC50 [3]: 12.6 µM (inconclusive)

SMILES: Cc1ccc(S(=O)(=O)N/N=C\c2cn(-c3ccccc3)nc2-c2ccccc2)cc1
- CC50 [7]: 13.2 µM (active)

SMILES: CCN(CC)CCCOC(=O)c1ccc(OC)cc1O
- EC50 [4]: 0.743 µM (active)
- EC50 [5]: > 60 µM (not active)

SMILES: CCN1CCCc2cc(CN(CCN3CCOCC3)C(S)=Nc3cccc(C)c3)ccc21
- EC50 [4]: 1.62 µM (active)
- EC50 [5]: > 60 µM (not active)

SMILES: Cc1ccc(S(=O)(=O)c2nc(S(=O)(=O)c3ccc(C)cc3)c(NCc3ccco3)s2)cc1
- AC50 [3]: 5.62 µM (inconclusive)

SMILES: c1ccc(Cc2ccc(OCCCNC3CCCC3)cc2)cc1
- EC50 [4]: 0.781 µM (active)
- EC50 [5]: > 30 µM (not active)

SMILES: O=C(N/N=C/c1ccc([N+](=O)[O-])o1)C(O)c1ccccc1 (stereo not given)
- EC50 [4]: 0.565 µM (active)
- EC50 [5]: > 60 µM (not active)

SMILES: Cc1csc(NC(=O)Cc2ccccc2[N+](=O)[O-])n1
- EC50 [6]: > 53 µM (inactive)

SMILES: Cc1cccc(CNc2cc(-c3c(C)noc3C)ncn2)c1
- AC50 [2]: 31.6 µM (inconclusive)

SMILES: c1ccc(CCNc2nc3ccccc3n3nnnc23)cc1
- EC50 [6]: > 53 µM (inactive)

SMILES: COc1ccc(CC(=O)NC(=S)Nc2cccc(C)c2)cc1
- EC50 [6]: 9.53 µM (active)

SMILES: O=C(NCc1nnc2c3ccccc3c(-c3ccccc3)nn12)c1ccc(Cl)cc1
- CC50 [7]: 7.36 µM (active)

SMILES: COc1ccccc1CNc1ncnc2ccc(-c3ccc4c(c3)OCO4)cc12
- AC50 [3]: 0.398 µM (inconclusive)

SMILES: COC(=O)Cn1c(C(=O)N2CCCC2)cc2c1C[C@H]1CN(C(=O)c3ccccc3)[C@@](Cc3ccc(F)cc3)(C(=O)OC)[C@@H]21
- AC50 [1]: 15.8 µM (inconclusive)

SMILES: O=C(Nc1ccncc1)c1ccc(Cl)c(Cl)c1
- EC50 [4]: 0.472 µM (active)
- EC50 [5]: > 30 µM (not active)

SMILES: O=C(c1cc(C(F)(F)F)cc(C(F)(F)F)c1)N1CCC[C@@]2(CCN(c3ccccn3)C2)C1
- AC50 [1]: 25.1 µM (inconclusive)
- AC50 [2]: 20 µM (inconclusive)

SMILES: Cc1[nH]c2ccc(F)cc2c1CCN(Cc1cccnc1)C(S)=Nc1ccccc1
- EC50 [4]: 0.953 µM (active)
- EC50 [5]: > 60 µM (not active)

SMILES: COc1ccc(-c2ccc3c(n2)CCCN3C[C@H](O)CN2CCCc3nc(C)c(C)cc32)cc1
- AC50 [2]: 3.16 µM (inconclusive)

SMILES: Clc1ccc2c(N3CCC(CCC4CCN(c5ncnc6cc(Cl)ccc56)CC4)CC3)ncnc2c1
- AC50 [1]: 3.16 µM (inconclusive)

SMILES: Cc1cc(C(=O)N/N=C/c2cccc(OC(=O)c3ccco3)c2)[nH]n1
- AC50 [1]: 22.4 µM (inconclusive)

SMILES: COc1cc(CN2CCCC(C(=O)Nc3cccc(-n4cccn4)c3)C2)ccc1F (stereo not given)
- EC50 [4]: 0.194 µM (active)
- EC50 [5]: > 60 µM (not active)

SMILES: COc1ccc(-n2c(=O)c(-c3ccc(Cl)cc3)nc3cnc(N4CCOCC4)nc32)cc1
- AC50 [3]: 31.6 µM (inconclusive)

SMILES: Cc1ccc(CNC(=O)c2nnn(-c3cccc(C)c3)c2N)cc1
- AC50 [2]: 39.8 µM (inconclusive)
- AC50 [3]: 39.8 µM (inconclusive)

SMILES: Cc1nn(-c2ccc([N+](=O)[O-])cc2)c2c1C(c1cccc(Br)c1)N1C(=N2)C(=O)Nc2ccccc21 (stereo not given)
- EC50 [4]: 2.13 µM (active)
- EC50 [5]: > 60 µM (not active)

SMILES: CN(C)C(=O)c1ccc(-c2cncnc2NC2CCNCC2)cc1
- AC50 [1]: 25.1 µM (inconclusive)

SMILES: Cn1c(=O)c([N+](=O)[O-])c(NCCc2ccccc2)c2ccccc21
- EC50 [4]: 0.554 µM (active)
- EC50 [5]: > 60 µM (not active)

SMILES: CSc1cc(C)nc(NC(C)=O)n1
- AC50 [1]: 1.26 µM (inconclusive)
- AC50 [3]: 3.16 µM (inconclusive)

SMILES: CCCCC(=O)Nc1cc(OCC)c(NC(=O)c2ccccc2[N+](=O)[O-])cc1OCC
- AC50 [1]: 14.1 µM (inconclusive)

SMILES: O=C1C2Sc3nc(O)sc3C(c3ccccc3)C2C(=O)N1c1ccc(Cl)cc1 (stereo not given)
- AC50 [2]: 22.4 µM (inconclusive)

SMILES: CCOc1ccccc1Nc1nc(-c2sc(NC(=O)c3ccccc3)nc2C)cs1
- AC50 [1]: 6.31 µM (inconclusive)
- AC50 [2]: 20 µM (inconclusive)

SMILES: CC(Oc1ccc(-c2ccccc2)cc1)C(=O)O (stereo not given)
- AC50 [1]: 25.1 µM (inconclusive)
- AC50 [3]: 39.8 µM (inconclusive)

SMILES: CCOC(=O)N1CCC(N2CCCC(C(=O)c3cc(F)ccc3OC)C2)CC1 (stereo not given)
- EC50 [4]: 2.66 µM (active)
- EC50 [5]: > 60 µM (not active)

SMILES: Cn1c(C(=O)OC(C(=O)NC2CCCCC2)c2ccncc2)cc2sccc21 (stereo not given)
- EC50 [4]: > 30 µM (not active)
- EC50 [5]: > 30 µM (not active)

SMILES: CSc1ccc(CN(C)CCc2ccccn2)cc1
- EC50 [4]: 0.143 µM (active)
- EC50 [5]: > 30 µM (not active)

SMILES: O=C(c1cnccn1)N1CCC[C@@]2(CCN(c3ccccc3)C2)C1
- AC50 [1]: 15.8 µM (inconclusive)

SMILES: O=S(=O)(c1ccccc1)N1CCC[C@@]2(CCN(C(c3ccccc3)c3ccccc3)C2)C1
- AC50 [3]: 10 µM (inconclusive)

SMILES: CC(C)NC[C@@H](O)COc1ccc(CCOCC2CC2)cc1
- AC50 [1]: 15.8 µM (inconclusive) and 12.6 µM (inconclusive)

SMILES: CC(C)(C)c1cc(/C=C(\C#N)C(N)=S)cc(C(C)(C)C)c1O [TYRPHOSTIN AG 879]
- AC50 [2]: 39.8 µM (inconclusive)

SMILES: CC(=O)Nc1ccc(Cc2ccc3nc(O)cc(C)c3c2)cc1
- AC50 [3]: 6.31 µM (inconclusive)

SMILES: COc1ccc2[nH]cc(CCNc3ccnc(-c4cccnc4)n3)c2c1
- AC50 [3]: 0.794 µM (inconclusive)

SMILES: C/C(CCC(=O)OC[C@@H]1O[C@H](C#Cc2ccccc2)C=C[C@@H]1Oc1ccc(C)cc1)=N/O[C@@H](C)CN1CCCc2nc(C)c(C)cc21
- AC50 [3]: 2.51 µM (inconclusive)

SMILES: CCN1CCN(CC(=O)N2CCCC(C(=O)c3ccc(Oc4ccccc4)cc3)C2)CC1 (stereo not given)
- EC50 [4]: 0.478 µM (active)
- EC50 [5]: > 30 µM (not active)

SMILES: CCCCSC(=S)N(C)C1CCS(=O)(=O)C1 (stereo not given)
- AC50 [1]: 25.1 µM (inconclusive)

SMILES: CCN1CCN(c2ccc(NC(=O)C(C)C)cc2Cl)CC1
- AC50 [2]: 14.1 µM (inconclusive)
